Test results: article PMC9779571, “Guanidine Derivatives Containing the Chalcone Skeleton Are Potent Antiproliferative Compounds against Human Leukemia Cells” (International Journal of Molecular Sciences, 2022)
Where “and” joins values, the source holds several entries; their conditions need not be identical. Identical values can stand only once.

Legend:
[1] = system: SK-MEL-1 cells; test: MTT cytotoxicity assay, SK-MEL-1; type: cell-based, human; conditions: means ± SEM
Description: (§1) U-937, HL-60, MOLT-3, NALM-6, and SK-MEL-1 cells were from DSMZ (German Collection of Microorganisms and Cell Cultures, Braunschweig, Germany). U-937/Bcl-2 cells were kindly provided by Dr. Jacqueline Bréard (INSERM U749, Faculté de Pharmacie Paris-Sud, Châtenay-Malabry, France). The U-937 is a pro-monocytic, human promyelocytic leukemia cell line that was isolated from a histiocytic lymphoma. HL-60 is a human acute myeloid leukemia cell line. MOLT-3 is a human acute lymphoblastic leukemia cell line. NALM-6 is a human B cell precursor leukemia. SK-MEL-1 is a human melanoma cell line growing singly or in clumps (occasional giant, polynucleated cell) in suspension. Cells were cultured in RPMI 1640 medium containing 10% (v/v) heat-inactivated fetal bovine serum, 100 μg/mL streptomycin, and 100 U/mL penicillin, incubated at 37 °C in a humidified atmosphere containing 5% CO2 as described. The doubling times of the cell lines were 24 h in HL-60, 30 h in U-937, U-937/Bcl-2, 40 h in MOLT-3 and NALM-6, and several days in SK-MEL-1 cells. Human peripheral blood mononuclear cells (PBMC) were isolated from heparin-anticoagulated blood of healthy volunteers by centrifugation with Ficoll-Paque Plus (GE Healthcare Bio-Sciences AB, Uppsala, Sweden). PBMC were also stimulated with phytohemagglutinin (2 µg/mL) for 48 h before the experimental treatment. The trypan blue exclusion method was used for counting the cells by a hemocytometer with 95% viability in all the experiments. Compounds were dissolved in dimethyl sulfoxide (DMSO) and kept under dark conditions at 25 °C. […] The cytotoxicity of the synthetic compounds was evaluated by colorimetric 3-(4,5-dimethyl-2-thiazolyl-)-2,5-diphenyl-2H-tetrazolium bromide (MTT) assay as previously described. Briefly, cells (5000 per well) were incubated with increasing concentrations of compounds for 72 h into a 96-well plate. Then, the supernatants were removed and 0.5 mg/mL MTT was added and incubated for 4 h at 37 °C. Sodium dodecyl sulfate (10% w/v) in 0.05 M HCl was added to solubilize the reaction products and the absorbance was measured at 570 nm with a reference wavelength of […] using an ELISA reader (Bio-Rad, Hercules, CA, USA). The IC50 values (concentrations inducing a 50% inhibition of cell viability) were determined graphically for each experiment by a nonlinear regression using the curve fitting routine implemented within the software Prism 5.0 (GraphPad, La Jolla, CA, USA).

[2] = system: U-937 leukemia cells; test: Cell cycle and sub-G1 analysis by flow cytometry (propidium iodide); type: cell-based, human; conditions: 24 h; for fold increase of sub-G1 cells over control / %G1 / %G2-M / %S / %Sub-G1: 10 µM; for fold increase of sub-G1 cells over control: U-937; for %G1 / %G2-M / %S / %Sub-G1: U-937, means ± S.E.; for cell cycle arrest: U-937, 10 µM
Method: (§2) Cells (2.5 × 10^5) were centrifuged for 10 min at 500× g, washed with cold PBS, fixed with ice-cold 75% ethanol and stored at −20 °C overnight. Samples were then centrifuged at 500× g for 10 min at 4 °C, washed with PBS, resuspended in 200 μL of PBS containing 100 μg/mL RNase and 50 μg/mL propidium iodide and incubated for 1 h in the dark. The DNA content was analyzed by flow cytometry with a BD FACSVerse^TM cytometer (BD Biosciences, San Jose, CA, USA). Apoptosis was also evaluated by flow cytometric analysis of double-staining annexin V-FITC and propidium iodide cells as previously described.

[3] = system: U-937 cells; test: Annexin V-FITC/propidium iodide flow cytometry, U-937; type: cell-based, human; conditions: U-937, 10 µM, 24 h; for annexin V-FITC positive cells: control 3.5%
Method: as §2

[4] = system: U-937/Bcl-2 cells; test: MTT cytotoxicity assay, U-937/Bcl-2; type: cell-based, human; conditions: means ± SEM
Description: as §1

[5] = system: human peripheral blood mononuclear cells (PBMC); test: Cell viability of quiescent and PHA-activated PBMC; type: cell-based; conditions: up to 10 µM, 24 h
Description: U-937, HL-60, MOLT-3, NALM-6, and SK-MEL-1 cells were from DSMZ (German Collection of Microorganisms and Cell Cultures, Braunschweig, Germany). U-937/Bcl-2 cells were kindly provided by Dr. Jacqueline Bréard (INSERM U749, Faculté de Pharmacie Paris-Sud, Châtenay-Malabry, France). The U-937 is a pro-monocytic, human promyelocytic leukemia cell line that was isolated from a histiocytic lymphoma. HL-60 is a human acute myeloid leukemia cell line. MOLT-3 is a human acute lymphoblastic leukemia cell line. NALM-6 is a human B cell precursor leukemia. SK-MEL-1 is a human melanoma cell line growing singly or in clumps (occasional giant, polynucleated cell) in suspension. […] The cytotoxicity of the synthetic compounds was evaluated by colorimetric 3-(4,5-dimethyl-2-thiazolyl-)-2,5-diphenyl-2H-tetrazolium bromide (MTT) assay as previously described. […] Sodium dodecyl sulfate (10% w/v) in 0.05 M HCl was added to solubilize the reaction products and the absorbance was measured at 570 nm with a reference wavelength of […] using an ELISA reader (Bio-Rad, Hercules, CA, USA). […]
Figure 2 (a) Dose-response study of hybrid chalcone–guanidines on human U-937 leukemia cell viability. Cells were cultured in the presence of increasing concentrations of selected guanidines for 72 h, and thereafter cell viability was determined by the MTT assay. […]

Row | Structure (SMILES) | IC50 ([1]; Homo sapiens, SK-MEL-1, 72 h) | fold increase of sub-G1 cells over control [2] | %G1 [2] | %G2-M [2] | %S [2] | %Sub-G1 [2] | cell cycle arrest [2] | fold increase of annexin V-FITC positive cells over control [3] | annexin V-FITC positive cells [3] | IC50 ([4]; Homo sapiens, U-937, 72 h) | cytotoxicity against proliferating and quiescent lymphocytes (PBMC) versus U-937 [5] | IC50 ([1]; 72 h) | IC50 ([4]; 72 h)
1 | Cc1ccc(S(=O)(=O)NC(=Nc2ccc(/C=C/C(=O)c3c(O)cccc3OCc3ccccc3)cc2)N2CCN(C)CC2)cc1 [Compound 6f] | 4.5 ± 0.4 µM | ~ 10 fold | 35.2 ± 3.8 % | 10.8 ± 1.6% | 28.3 ± 0.2% | 25.1% and 25.1 ± 2.6 % | not caused by a significant cell cycle arrest in any phase | 11 fold | 38% | 2.2 ± 0.8 µM | lower cytotoxicity |  | 
2 | O=C(/C=C/c1ccc(N=C(Nc2ccccc2)N2CCCCC2)cc1)c1c(O)cccc1OCc1ccccc1 [Compound 6i] | ~10 µM | ~ 13 fold | 35.9 ± 2.1 % | 8.4 ± 0.1 % | 23.6 ± 2.4 % | 31.6% and 31.6 ± 4.5 % | not caused by a significant cell cycle arrest in any phase | 10 fold | 36% | < 10 µM | lower cytotoxicity | 13.8 ± 1.2 µM | 5.1 ± 1.8 µM
